Assay results reported in patent US4558144A, “Volatile metal complexes” (Corning Glass Works, priority 1984, dated 1985).

How the values were obtained:
[1] = Thermogravimetric analysis (TGA), volatility; type: physicochemical; settings: for volatilization behavior / decomposition in TGA / T1/2 (temperature at which one-half of the sample has been evaporated): 20 mg sample, 10° C./min, argon; for T1/2 (temperature at which one-half of the sample has been evaporated): TGA; for T1/2 volatility: Table III, comparative data
Description: A thermogravimetric analysis (TGA) of the product was carried out on a 20 mg sample of the material, heated at a rate of 10° C./min under an argon atmosphere. A thermogravimetric curve resulting from such a study, identified as "TGA-Mg(hfa)2.1,2-DME", is reproduced in FIG. 1 of the drawing.

Vapor pressure = type: physicochemical
[2] = Thermal stability, heating in evacuated/sealed ampoules at 200° C. for 24 hours; type: physicochemical; settings: ampoule, compared with corresponding THF adduct
Description: The thermal stability of Mg(hfa)2.1,2-DME is evidenced not only by the TGA data set forth in FIG. 1, but also by investigations as to the extent and nature of the decomposition of Mg(hfa)2.1,2-DME after prolonged heating at temperatures in the 100°-200° C. range.
As in the case of the magnesium complex, the thermal stability of Zn(hfa)2.1,2-DME is evidenced not only by the observed rapid and complete TGA volatilization behavior shown in FIG. 2, but also by measuring residual gas pressure after heating a sample of the material in a sealed ampoule at 200° C. for 24 hours.

[3] = at 200° C.; EP No. 0103446; cited from earlier work

| SMILES | volatilization behavior / decomposition in TGA ([1]; in words) | T1/2 (temperature at which one-half of the sample has been evaporated) [1] | T1/2 volatility [1] | residual pressure after heating [2] | sample discoloration after heating [2] | other results |
| --- | --- | --- | --- | --- | --- | --- |
| COCCOC.O=C(C=C([O-])C(F)(F)F)C(F)(F)F.O=C(C=C([O-])C(F)(F)F)C(F)(F)F.[Mg+2] [Mg(hfa)2.1,2-DME] | rapid and complete volatilization of the complex over a narrow temperature range, indicating the absence of detectable decomposition | about 170 °C | 170 °C | lower residual pressure | less discoloration | vapor pressure (Vapor pressure; at about 120° C.): 10 mm (Hg) |
| O=C(C=C([O-])C(F)(F)F)C(F)(F)F.O=C(C=C([O-])C(F)(F)F)C(F)(F)F.[Mg+2].c1cnc2c(c1)ccc1cccnc12 [Mg(hfa)2.1,10-phenanthroline, reference compound] | – | – | 295 °C | – | – | – |
| C1CCOC1.C1CCOC1.O=C(C=C([O-])C(F)(F)F)C(F)(F)F.O=C(C=C([O-])C(F)(F)F)C(F)(F)F.[Mg+2] [Mg(hfa)2.2THF, reference compound] | – | 180 °C | – | – | – | volatilization without decomposition [3]: can be volatilized without decomposition |
| COCCOC.O=C(C=C([O-])C(F)(F)F)C(F)(F)F.O=C(C=C([O-])C(F)(F)F)C(F)(F)F.[Zn+2] [Zn(hfa)2.1,2-DME] | rapid and complete vaporization over a narrow range of temperatures, indicating no detectable thermal decomposition | 162 °C | 162 °C | lower residual pressure | less discoloration | T1/2 temperature compared with Zn(hfa)2.2THF ([1]; same TGA conditions, in words): only slightly higher than the T1/2 temperature of Zn(hfa)2.2THF; vapor pressure (Vapor pressure; at 125° C.): about 16 mm (Hg) |
| O=C(C=C([O-])C(F)(F)F)C(F)(F)F.O=C(C=C([O-])C(F)(F)F)C(F)(F)F.[Zn+2].c1cnc2c(c1)ccc1cccnc12 [Zn(hfa)2.1,10-phenanthroline, reference compound] | – | – | 310 °C | – | – | – |
| O=C(C=C([O-])C(F)(F)F)C(F)(F)F.O=C(C=C([O-])C(F)(F)F)C(F)(F)F.[Zn+2].c1ccc(-c2ccccn2)nc1 [Zn(hfa)2.2,2'-bipyridine, reference compound] | – | – | 295 °C | – | – | – |
